According to US20240336657A1, “G-ALPHA-S PEPTIDE INHIBITORS AND USES THEREOF” (The Regents of the University of California, priority 2021, published 2024):
Positions of bridges follow the written chain, without caps; N, C: chain ends. Non-standard residues stand in square brackets, D forms with d. Residues, ends and D or L forms follow the SMILES beside them.

How the values were obtained:
GDP-bound Gαi1 = molecular target: T1, GDP-bound Gαi1 (Homo sapiens, UniProt P63096); test: Bio-layer interferometry (BLI) binding; conditions: highest concentration tested
T1 construct: hexahistidine (N, cleaved yes); made in house; host or cells: Escherichia coli BL21(DE3)
T1 sequence (P63096 with tags, fused parts or gaps): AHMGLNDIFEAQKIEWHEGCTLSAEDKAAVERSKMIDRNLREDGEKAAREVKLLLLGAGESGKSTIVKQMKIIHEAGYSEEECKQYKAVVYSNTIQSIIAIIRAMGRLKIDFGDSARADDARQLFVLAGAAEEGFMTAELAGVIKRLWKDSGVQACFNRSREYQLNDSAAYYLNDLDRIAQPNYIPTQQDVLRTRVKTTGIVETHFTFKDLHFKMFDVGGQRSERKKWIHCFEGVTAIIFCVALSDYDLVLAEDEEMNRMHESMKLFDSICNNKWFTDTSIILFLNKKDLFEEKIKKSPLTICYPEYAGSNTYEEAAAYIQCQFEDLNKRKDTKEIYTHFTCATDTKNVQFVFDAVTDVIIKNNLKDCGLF
Procedure: (§1) BLI experiments were performed using an OctetRED384 instrument from ForteBio. All experiments were performed at 25° C. using BLI buffer (10 mM HEPES pH 7.4, 150 mM NaCl, 1 mM MgCl2, 0.05% Tween-20, 0.1% DMSO, 0.2 mM GppNHp or GDP). Cyclic peptides were diluted to a series of concentrations in BLI buffer plus 10 μM Biotin. Assays were conducted in Greiner 384well, black, flat bottom polypropylene plates containing the protein solutions, BLI buffer plus 10 μM Biotin for dissociation, and serial dilutions of cyclic peptides to be tested.
(§2) Biotinylated proteins were immobilized on Streptavidin biosensors by dipping sensors into plate wells containing protein solutions at a concentration of 100-150 nM. Protein loading is around 2-3 nm. Sensors loaded with proteins were moved and dipped into wells with BLI buffer plus 10 μM Biotin to block unlabeled Streptavidin. Association-dissociation cycles of compounds were started by moving and dipping sensors to cyclic peptides dilutions and BLI buffer plus 10 μM Biotin wells alternatively. Association and dissociation times were carefully determined to ensure full association and dissociation.
(§3) Raw kinetic data collected were processed with the Data Analysis software provided by the manufacturer using single reference subtraction in which buffer-only reference was subtracted (For GN13 analysis). Because GD20 analogs have a low level of background binding, we used a double reference subtraction (buffer-only reference and non-protein-loading reference) method to calculate their kinetics values. The resulting data were analyzed based on a 1:1 binding model from which kon and koff values were obtained and then Kd values were calculated.

GppNHp-bound Gαi1 = molecular target: T2, GppNHp-bound Gαi1 (Homo sapiens, UniProt P63096); test: Bio-layer interferometry (BLI) binding; conditions: highest concentration tested
T2 construct: hexahistidine (N, cleaved yes); made in house; host or cells: Escherichia coli BL21(DE3)
T2 sequence (P63096 with tags, fused parts or gaps): as above
Procedure: as §1, §2, §3

Gαs = Gαs (Homo sapiens, UniProt P63092); test: GTPγS binding assay ([35S]GTPγS); format: biochemical; set-up: made in house; host or cells: Escherichia coli BL21(DE3)
Gαs, sequence (P63092 1-380 isoform P63092-2): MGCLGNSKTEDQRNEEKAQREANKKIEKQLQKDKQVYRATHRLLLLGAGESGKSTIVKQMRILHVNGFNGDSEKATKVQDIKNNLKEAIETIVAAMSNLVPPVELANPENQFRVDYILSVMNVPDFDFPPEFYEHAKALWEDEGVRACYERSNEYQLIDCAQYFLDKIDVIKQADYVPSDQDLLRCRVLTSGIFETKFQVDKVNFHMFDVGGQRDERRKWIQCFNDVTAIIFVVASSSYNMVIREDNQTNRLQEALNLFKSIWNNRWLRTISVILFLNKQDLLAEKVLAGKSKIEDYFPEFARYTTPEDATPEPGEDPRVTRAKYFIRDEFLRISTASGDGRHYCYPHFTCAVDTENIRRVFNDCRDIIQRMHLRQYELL
Procedure: Gα proteins were diluted to 10 μM with dilution buffer (20 mM HEPES 7.5, 150 mM NaCl, 1 mM MgCl2, 2 mM DTT, and 20 μM GDP) and incubated with 5× stocks of cyclic peptides at room temperature for 2 hours. GTPγS binding was initiated by mixing with the reaction buffer at room temperature (50 nM [35S]GTPγS and 100 μM GTPγS in dilution buffer) at room temperature. At various time points, 10 μL of the sample was removed and mixed with 390 μL of ice-cold wash buffer (20 mM HEPES 7.5, 150 mM NaCl, 20 mM MgCl2). The mixture was filtered through a mixed cellulose membrane (25 mm, 0.22 μm). The membrane was washed by ice-cold wash buffer (500 μL×3), put in a 6-mL plastic vial and air-dried (room temperature 1.5 h). 5 mL of CytoScint-ES Liquid Scintillation Cocktail (MP Biomedicals) was added to each vial. After incubation overnight at room temperature, the vial was used for liquid scintillation counting with a LS 6500 Multi-Purpose Scintillation Counter. A standard curve was generated using [35S]GTPγS. The radioactive activity (Counts per minute) of the samples were converted to the GTPγS concentration. The GTPγS binding curves were fitted by the software GraphPad Prism using the following equation to calculate the apparent GTPγS binding rates (kapp): […]
in which “Y” is the concentration of GTPγS that bound to Gα protein at time “X” (minutes).

For `CC[C@H](C)[C@@H]1NC(=O)[C@H](C)NC(=O)[C@H](Cc2ccc(O)cc2)NC(=O)[C@H](C(C)C)NC(=O)[C@H](CO)NC(=O)[C@H](CCC(=O)O)NC(=O)[C@H](Cc2ccccc2)NC(=O)[C@@H](Cc2ccc(O)cc2)NC(=O)CSC[C@@H](C(=O)NCC(N)=O)NC(=O)[C@H](CC(C)C)NC(=O)[C@H]([C@@H](C)O)NC(=O)CNC(=O)[C@H](Cc2c[nH]c3ccccc23)NC1=O` [GN13] ({CH2CO}-[dY]FESVYAIWGTLCG-NH2; thioether N-13), the “binding to GDP-bound Gαi1” value (GDP-bound Gαi1) was “no detectable binding”, the “binding to GppNHp-bound Gαi1” value (GppNHp-bound Gαi1) was “no detectable binding” and the “effect on the apparent rate of GTPγS binding (kapp) to Gαs” value (Gαs) was “increased”.
